The source of these data is patent publication US11787850B2, “Peptidic TGF-beta antagonists” (priority 2015, dated 2023).

In series [1] the test system is TGF-β1-induced Smad3-driven (CAGA12-lux) transcriptional activity. In words: Luciferase reporter assay in HEK293-(CAGA)12 cells. The note with it: 100 pM TGF-β1, 18 hours; for inhibition of TGF-β1-induced CAGA12-lux activity, peptide pre-treated with DMSO: 0.5% DMSO pre-treatment (FIG. 8); for inhibition of TGF-β1-induced CAGA12-lux activity, peptide in Tris buffer left untreated: no DMSO (FIG. 8). Format: cell-based. The method, then:
FIGS. 5A and 5B illustrate that some small molecular weight CD109-based peptides (Peptide A, P28, P21 and […]) inhibit TGF-β1-induced Smad3-driven transcriptional activity. […] Cell lysates were analyzed for luciferase activity and data are expressed as mean±standard deviation of relative light units (RLU). […] Under the conditions tested, peptide A, P28, P21 and P16 inhibited TGF-β1-induced transcriptional (CAGA12-lux) activity.
FIG. 6 illustrates that the small molecular weight CD109-based peptide P16 (but not P16-2, P11 or X-4) inhibit TGF-β1-induced Smad3-driven transcriptional activity. HEK293 cells stably transfected with the Smad3-responsive CAGA12-lux luciferase reporter were treated for 18 hours without (−) or with (+) […] TGF-β1 in the presence or absence of 10 nM of P16-2 (16 aa scrambled control), P11 (11 aa sequence), P16 (16 aa), X-4 (11 aa) or Tris-buffer (buffer control) as indicated. Cell lysates were analyzed for luciferase activity and data are expressed as mean±standard deviation of luciferase activity. Results are shown as luciferase activity for the peptides used.
FIG. 8 illustrates that DMSO treatment enhances the TGF-β inhibitory activity of Peptide X but not P21 or P16. HEK293 cells stably transfected with the Smad3-responsive CAGA12-lux luciferase reporter were treated for 18 hours without (−) or with (+) 100 pM TGF-β1 in the presence or absence of Peptide X (PX), P21 or P16. The peptides were previously dissolved in Tris buffer and left untreated or treated with DMSO prior to addition to the cells. Addition of Tris buffer or DMSO alone served as additional controls. Cell lysates were analyzed for luciferase activity and data are expressed as mean±standard deviation of luciferase activity. Results are shown as luciferase activity. […] P16 and P21 inhibited TGF-β1-induced CAGA12-lux activity and these effects were not enhanced by DMSO treatment. […]
FIG. 25 is a graph showing the ability of CD109-based peptides to inhibit TGF-β-induced, Smad3-driven transcriptional activity. HEK293 cells stably transfected with the Smad3-responsive CAGA12-lux luciferase reporter were treated for 18 hours without (−) or with (+) 100 pM TGF-b1 in the presence or absence of 10 nM of P16, P16.2, peptide A, P15, P14, P13, P12, P11, peptide X, P21, or 2% NH4OH buffer (buffer control) as indicated. Cell lysates were analyzed for luciferase activity and data are expressed as mean±standard deviation of luciferase activity.
HEK293 cells stably transfected with the Smad3-responsive CAGA12-lux luciferase reporter construct were incubated with dimeric or monomeric forms of peptide A as indicated and treated with 100 pM TGF-b overnight. Cell lysates were analyzed for luciferase activity. Data are presented as fold-activation compared to TGF-b1 treatment alone (scaled to 1.0). M+D, mixture of monomer and dimer.
Luciferase reporter assays were performed using a HEK293-(CAGA)12 cell line that stably expresses a TGF-β/Smad3-responsive (CAGA)12-luciferase reporter gene [Cash et al. 2013]. HEK293-(CAGA)12 cells were grown in 24-well plates to 70-80% confluency and serum-starved overnight. Cells were washed with PBS and treated with or without TGF-β1 in presence or absence of various CD109-based peptides as indicated in the figure legends. Cells were then washed twice with cold PBS and solubilized in 100 μl of Passive Lysis Buffer (Promega) for 30 min at 4° C. The cell lysates were assayed for luciferase and β-galactosidase activities using commercially available kits (BD Biosciences).
HEK293 cells stably transfected with the Smad3-responsive CAGA12-lux luciferase reporter were treated for 18 hours without (−) or with (+) 100 pM TGF-β1 in the presence or absence of 10 nM (FIG. 5A) or 5 nM (FIG. 5B) of peptide A (Pep A, 161 aa), P28 (28 aa peptide), P21 (21 aa peptide), P16 (16 aa peptide), P16.2 scrambled peptide (16 aa, scrambled P16 sequence) or Tris-buffer (negative control for peptides) as indicated. […]
Background: A reporter such as luciferase makes a cellular process visible.

Series [2] is described as follows: Aggregation assay: Microcon 100 kDa filtration, Tricine SDS-PAGE, silver staining. The series is classed as physicochemical. The note with it: for aggregation state (aggregated versus soluble fraction): 50 mM Tris-HCl pH 7.0, 2 hrs at 4° C., 100 kDa cut-off; for effect of DMSO treatment on aggregation: 0.5% DMSO for 2 hrs at 4° C. The procedure: Peptide X (X, 40 amino acids) and P16 (16 amino acids) were left untreated (−) or treated with 0.5% DMSO (+) for 2 hrs at 4° C. The aggregated and non-aggregated soluble fractions were then separated using a Microcon™ centrifugal filtration device (Millipore), with a molecular weight cut-off of 100 kDa. This device allows passage of molecules <100 kDa through the filter but retains larger molecules (aggregates). The aggregated (FIG. 1A—left panel) and soluble (FIG. 1B—right panel) fractions were then separated by 17% Tricine-SDS gel electrophoresis and peptides detected by silver staining. In the conditions tested, multiple bands with various staining intensities were detected in peptide X aggregated fraction and two of these bands were decreased with DMSO treatment (A—left panel, arrows) leading to an increase in the amount of soluble peptide X (B—right panel, arrow, lane 2 versus 3). […] (A-B) Lane 1: Molecular weight marker. Lanes 2-5: samples.
Aggregation assay. Soluble peptides were separated from aggregates and precipitates by filtration. The molecular weight cut-off of the filter was chosen such that soluble protein was allowed to pass through the filter, while aggregate forms were retained. Peptide X and P16 previously dissolved in 50 mM Tris-HCl (pH=7.0) were left untreated or treated with 0.5% dimethyl sulfoxide (DMSO) for 2 hours at 4° C. Soluble protein was then separated from aggregated protein using a Microcon™ concentrator (Millipore), with a molecular weight cut-off of 100 kDa. The Microcon was spun in a desktop centrifuge at 16,000×g for 15 min. Aggregated protein retained on the membrane was resuspended in H2O, pipetting repeatedly across the membrane to ensure that as much protein as possible was removed. Aliquots of soluble protein and aggregated protein were each mixed with 5× sample buffer (250 mM Tris-HCl, 40% glycerol, 140 mM SDS, 0.6 M β-mercaptoethanol, pH 6.8) and heated to 85-90° C. for 10 min prior to Tricine SDS-PAGE. Samples were analyzed by 17% Tricine SDS-PAGE and peptides visualized by silver staining. Aggrescan Analysis
Peptide X (X, 40 amino acids) and P16 (16 amino acids) were left untreated (−) or treated with 0.5% DMSO (+) for 2 hrs at 4° C. The aggregated and non-aggregated (soluble) fractions were then separated using a Microcon centrifugal filtration device (Millipore), with a molecular weight cut-off of 100 kDa. This device allows passage of molecules less than 100 kDa through the filter but retains larger molecules (aggregates). The aggregated and soluble fractions were then separated by 17% Tricine-SDS gel electrophoresis and peptides visualized by silver staining.

Turning to ETWIWLDTNMGSRIYQ [Peptide P16], in series [1], the “inhibition of TGF-β1-induced CAGA12-lux activity, peptide pre-treated with DMSO” value is given as “not enhanced” and the “inhibition of TGF-β1-induced CAGA12-lux activity, peptide in Tris buffer left untreated” value was “inhibited”. In series [2], the “aggregation state (aggregated versus soluble fraction)” value was “aggregated only to a minor extent” and the “effect of DMSO treatment on aggregation” value is reported as “not altered by DMSO treatment”.

“LGSSPHVRKHFPETWIWLDTNMGSRIYQEFEVTVPDSITS (Peptide X)”: in series [1], the “inhibition of TGF-β1-induced CAGA12-lux activity, peptide pre-treated with DMSO” value was “inhibited” and the “inhibition of TGF-β1-induced CAGA12-lux activity, peptide in Tris buffer left untreated” value is listed as “did not”. Also, in series [2], the “aggregation state (aggregated versus soluble fraction)” value is “existed predominantly in aggregated form” and the “effect of DMSO treatment on aggregation” value is “partially decreased”.
